Experimental data reported in the supplement of paper PMC5579334.

Key:
HS-Sch-2 [1] = experiment: relative IC50 (inflection point of fitted dose-response curve, CellTiter-Glo viability, 72 h; top asymptote may be below 50% inhibition); higher = less potent
How it was run: (§1)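 After seeding 750–1000 cells per well of MPNST cell lines or primary human Schwann cells into 384-well plates preprinted with each compound at five concentrations in 10-fold steps, plates were kept 72 h at 37 °C, 5% CO2. Viability was read as CellTiter-Glo ATP luminescence relative to vehicle and positive-control wells, with duplicates averaged where present. The data were fitted with four-parameter logistic models. Drug sensitivity score and relative IC50, censored at the top concentration, derive from the fits, and percent inhibition refers to the top concentration.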

HS-PSS [2] = experiment: relative IC50 (inflection point of fitted dose-response curve, CellTox-Green cytotoxicity, 72 h; top asymptote may be below 50%); higher = less potent
How it was run: (§2)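 For 72 h at 37 °C, MPNST cell lines and primary human Schwann cells were exposed in 384-well plates to five 10-fold compound dilutions. CellTox-Green, added before seeding at a final 1:1000 dilution, gave fluorescence from DNA released by disrupted cells. Signals were scaled to vehicle and positive-control wells, cultures failing plate quality control were left out, and four-parameter logistic fits were applied. Relative IC50 and drug sensitivity score were derived from the fits, with IC50 censored at the top concentration.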

YST-1 [3] = experiment: relative IC50 (inflection point of fitted dose-response curve, CellTiter-Glo viability, 72 h; top asymptote may be below 50% inhibition); higher = less potent
How it was run: as §1

HS-PSS [4] = experiment: drug sensitivity score (DSS, CellTox-Green cytotoxicity, 72 h) (DSS (dimensionless)); higher = more cytotoxic; extreme values may be limits of the assay
How it was run: as §2

HS-PSS [5] = experiment: drug sensitivity score (DSS, CellTiter-Glo viability, 72 h) (DSS (dimensionless)); higher = more sensitive; extreme values may be limits of the assay
How it was run: as §1

YST-1 [6] = experiment: as above
How it was run: as §1

HS-Sch-2 [7] = experiment: as above
How it was run: as §1

HS-PSS [8] = experiment: % inhibition of CellTiter-Glo viability at highest tested concentration (72 h), relative to DMSO and benzethonium chloride controls; higher = more inhibition
How it was run: as §1

YST-1 [9] = experiment: as above
How it was run: as §1

HS-Sch-2 [10] = experiment: as above
How it was run: as §1

Compound	relative IC50 (HS-Sch-2 [1]) [nM]	relative IC50 (HS-PSS [2]) [nM]	relative IC50 (YST-1 [3]) [nM]	other results
COc1cccc2c1c(O)c(C(=O)N(C)c1ccc(C(F)(F)F)cc1)c(=O)n2C [Tasquinimod]	> 10000	> 10000	–	–
Cc1nc(=O)c2cc(CN(C)c3ccc(C(=O)N[C@@H](CCC(=O)O)C(=O)O)s3)ccc2[nH]1 [Raltitrexed]	22.7	> 1000	11.2	–
O=C(Nc1ccc(OC(F)(F)F)cc1)c1sccc1NCc1ccnc2ccccc12 [OSI-930]	–	> 2500	> 2500	–
COc1ccc2c(OCc3nnc4ccc(-c5ccccc5)nn34)ccnc2c1 [AMG-208]	> 2500	> 2500	> 2500	–
Cc1csc(-c2nnc(Nc3ccc(Oc4ncccc4-c4ccnc(N)n4)cc3)c3ccccc23)c1 [AMG-900]	326	> 1000	11	–
C=CC(=O)Nc1cccc(Nc2nc(Nc3ccc(OCCOC)cc3)ncc2F)c1 [Spebrutinib]	–	> 1000	–	–
O=C(NC[C@H](O)CN1CCc2ccccc2C1)c1cc(NC2COC2)ncn1	–	> 10000	–	–
O=C(Nc1cccc(C(F)(F)F)c1)Nc1cc(S(=O)(=O)NC2CC2)ccc1-c1ccsc1 [AGI-6780]	1400	> 10000	–	–
Nc1nc(Nc2ccc3c(c2)CC[C@@H](N2CCCC2)CC3)nn1-c1cc2c(nn1)-c1ccccc1CCC2 [BGB324]	570	> 10000	2140	–
C#Cc1cccc(Nc2ncnc3cc4c(cc23)OCCOCCOCCO4)c1 [Icotinib]	–	> 10000	–	–
Cc1ccccc1C(C(=O)NC1CCCCC1)N(C(=O)Cn1ccnc1C)c1cccc(F)c1 (stereo not given) [AGI-5198]	–	> 10000	> 10000	–
CCN1CCN(Cc2ccc(-c3cc4c(N[C@H](C)c5ccccc5)ncnc4[nH]3)cc2)CC1 [NVP-AEE788]	> 2500	> 2500	–	–
Cc1cccc(-c2[nH]c(CNc3ccccc3F)nc2-c2ccc3ncnn3c2)n1 [TEW-7197]	–	> 2500	> 2500	–
Cn1ncnc1[C@H]1c2n[nH]c(=O)c3cc(F)cc(c23)N[C@@H]1c1ccc(F)cc1 [Talazoparib]	105	> 1000	9.15	–
N#CC1(c2ccc(NC(=O)c3cccnc3NCc3ccncc3)cc2)CCCC1 [Apatinib]	> 10000	> 10000	–	–
CCc1nc(-c2cccc(C)c2)c(-c2ccnc(NC(=O)c3ccccc3)c2)s1 [TAK-715]	1210	> 10000	–	–
Cc1[nH]c(/C=C2\C(=O)Nc3ccccc32)c(C)c1CCC(=O)O [Orantinib]	> 10000	205	–	–
O=C(NOCC1CC1)c1ccc(F)c(F)c1Nc1ccc(I)cc1Cl	1630	> 10000	–	–

Compound	relative IC50 (HS-Sch-2 [1]) [nM]	relative IC50 (HS-PSS [2]) [nM]	relative IC50 (YST-1 [3]) [nM]	other results
O=C(NOC[C@H](O)CO)c1ccc(F)c(F)c1Nc1ccc(I)cc1F	–	> 1000	> 1000	–
Cc1ncc(Cl)cc1NCc1ccc(C(=O)N[C@@H](CC2CCCC2)C(=O)NC2CC2)s1	–	> 5000	103	–
Clc1ccccc1C(c1ccccc1)(c1ccccc1)n1cccn1 [TRAM-34]	–	> 1000	> 1000	–
CN1CC[C@@H](NC(=O)Nc2ccc(C#N)cc2)C[C@@H]1c1nc2ccccc2[nH]1 [Glasdegib]	–	> 1000	> 1000	–
O=c1ncn2nc(Sc3ccc(F)cc3F)ccc2c1-c1c(Cl)cccc1Cl [VX 745]	–	> 10000	778	–
COC(=O)N[C@@H](C)CNc1nccc(-c2cn(C(C)C)nc2-c2cc(Cl)cc(NS(C)(=O)=O)c2F)n1 [Encorafenib]	–	> 1000	> 1000	–
O=C(Nc1cc(Cl)cc2c1[nH]c1cnccc12)c1cccnc1 [PS-1145]	> 25000	> 25000	–	–
OCCn1cc(-c2cnc3nnn(Cc4ccc5ncccc5c4)c3n2)cn1	> 2500	> 2500	–	–
CCN(c1cc(-c2ccc(CN3CCOCC3)cc2)cc(C(=O)NCc2c(C)cc(C)[nH]c2=O)c1C)C1CCOCC1 [Tazemetostat]	–	> 10000	> 10000	–
COc1ccc(Cl)c(Nc2nc3ccccc3nc2NS(=O)(=O)c2cccc(NC(=O)C(C)(C)N)c2)c1 [Pilaralisib]	–	> 2500	674	–
Cn1cc(-c2ccc3nnc(C(F)(F)c4ccc5ncccc5c4)n3n2)cn1	–	> 10000	–	–
COc1cc(C(=O)NC2CCN(C)CC2)c(F)cc1Nc1ncc2c(n1)N(C1CCCC1)CC(F)(F)C(=O)N2C [TAK-960]	–	> 2500	> 2500	–
Cc1nc(NC(=O)N2CCC[C@H]2C(N)=O)sc1-c1ccnc(C(C)(C)C(F)(F)F)c1 [Alpelisib]	–	> 2500	217	–
Cc1cc(-c2ncc(-c3cccnc3)cc2/C=C/c2ccccc2)cnc1-c1cccnc1 [Pyridoclax]	–	> 25000	672	–
CC(C)Oc1cc(Nc2nc(N[C@@H](C)c3ccc(F)cn3)ncc2Cl)n[nH]1 [AZ-23]	–	–	162	–
Cc1cc(C(=O)NOCCO)c(Nc2ccc(I)cc2F)n(C)c1=O [AZD-8330] (max concentration tested 10000 nM)	–	–	–	drug sensitivity score (HS-PSS [4]): 0; drug sensitivity score (HS-PSS [5]): 8.85; drug sensitivity score (YST-1 [6]): 0; drug sensitivity score (HS-Sch-2 [7]): 11.6; % inhibition (HS-PSS [8]): 51.1%; % inhibition (YST-1 [9]): 3.34%; % inhibition (HS-Sch-2 [10]): 53.5%
CN1CCN(c2cc(C(=O)Nc3ccc4c(c3)-c3c(c(C(N)=O)nn3-c3ccc(F)cc3)CC4)c(Cl)cn2)CC1 [PHA 408] (max concentration tested 10000 nM)	–	–	–	drug sensitivity score (HS-PSS [4]): 4.95; drug sensitivity score (HS-PSS [5]): 7.02; drug sensitivity score (YST-1 [6]): 5.73; drug sensitivity score (HS-Sch-2 [7]): 5.4; % inhibition (HS-PSS [8]): 101%; % inhibition (YST-1 [9]): 99.9%; % inhibition (HS-Sch-2 [10]): 99.8%
